In patent US20040121947A1, “Compounds which inhibit beta-secretase activity and methods of use thereof” (Oklahoma Medical Research Foundation, priority 2000, published 2004):
One block for each compound: values may come before it. *1 amine or outer side, *2 acyl side, *3 side chain or, on linkers, in order; H or OH if unused. Where a SMILES comes first, the peptide text is derived from it. [ ]: non-standard residue; d: D form. The star is where a group is joined. LeuΨ(S-CHOHCH2)Ala = CC(C)C[C@H](N[*:1])[C@@H](O)C[C@@H](C)C(=O)[*:2]; 5FAM = O=C1OC2(c3ccc(O)cc3Oc3cc(O)ccc32)c2ccc(C(=O)*)cc21; Ahx = NCCCCCC(=O)O

Columns and labels:
memapsin 2 = target: T1, memapsin 2 (Homo sapiens, UniProt P56817); test: Inhibition of memapsin 2 proteolytic activity, fluorogenic substrate FS-2; assay type: biochemical; conditions: memapsin 2, carrier peptide-inhibitor conjugates; read-out: Ki apparent
T1 construct: pET-11 vector-derived residues 1-15 of promemapsin 2-T1 (N, cleaved yes); made in house; host or cells: E. coli
T1 sequence (P56817 41-454 limits assumed): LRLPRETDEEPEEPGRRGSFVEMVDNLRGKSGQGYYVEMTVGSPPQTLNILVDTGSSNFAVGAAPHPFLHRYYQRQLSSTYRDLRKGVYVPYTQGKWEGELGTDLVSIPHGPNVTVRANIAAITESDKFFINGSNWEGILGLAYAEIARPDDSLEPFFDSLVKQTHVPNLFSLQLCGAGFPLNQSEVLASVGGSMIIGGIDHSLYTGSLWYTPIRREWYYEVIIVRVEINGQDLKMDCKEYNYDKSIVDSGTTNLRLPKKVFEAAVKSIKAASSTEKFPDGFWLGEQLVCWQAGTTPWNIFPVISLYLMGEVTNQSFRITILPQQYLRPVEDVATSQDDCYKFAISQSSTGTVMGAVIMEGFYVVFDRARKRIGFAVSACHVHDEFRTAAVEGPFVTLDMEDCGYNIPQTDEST
In short: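 Inhibitors tested at about 10 nM to 10 μM in pH 4.0 0.1 M sodium acetate containing 10% (v/v) DMSO, after 20 min preincubation at 37 °C with 80 nM self-activated memapsin 2. Substrate-independent Ki derived from apparent Ki via Km and substrate level.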

HEK293 cells = test: Penetration of fluorescently labelled inhibitors into cultured cells (flow cytometry); assay type: cell-based, human; conditions: incubation 10 to 30 minutes
Experimental: Fluorescently labelled inhibitors or fluorescein (Fs) as a control were incubated with suspended cells for time intervals ranging from 10 to 30 minutes. Cells were fixed with paraformaldehyde and permeabilized in 0.2% Tween-20 in PBS for 6 minutes and incubated with anti-fluorescein-Alexa™ 488 antibody (Molecular Probes, Eugene, Oreg.) in order to enhance detection of intracellular inhibitor present from penetration. Flow cytometry (FACSCalibur™) and confocal fluorescent microscopy (Leica TCS NT™) were performed at the Flow and Image Cytometry Lab, OUHSC.

[1] = Transport of conjugated inhibitors to mouse blood, spleen and brain after i.p. injection
Experimental: Whole blood cells (with EDTA as anti-coagulant in the syringe or in the capillary tube) were isolated from anesthetized animals from the orbital artery or by heart puncture and diluted 1:10 in PBS. Prior to the harvest of other tissue samples, animals were anesthetized and perfused with 150 ml of neutral-buffered 10% formalin. Spleens were harvested intact. Brains were harvested and cerebral hemispheres separated, one for sectioning by cryostat, the other for single cell isolation for flow cytometry.
Sections of the brain hemispheres were obtained by soaking in OCT/PBS at 4° C. for overnight, recovered and frozen in Histo Prep Media.
To collect single cell suspensions, spleens and brain hemispheres were homogenized through a 30 μm screen and directly analyzed by flow cytometric analysis.

plasma Aβ40 [2] = test: Inhibition of Aβ production in transgenic mice (plasma Aβ40 ELISA); assay type: in vivo, tg2576 mice; conditions: for Effect on plasma Aβ40: i.p. injection, 2 hours following injection
Experimental: Six-month-old tg2576 mice (n=21) were injected intraperitoneally (i.p.) 200 μg of conjugate CPI-3 or with control DMSO, in 200 μl of PBS. Plasma were collected from anesthetized animals by orbital bleed or sephaneous vein into heparinized capillary tubes and clarified by centrifugation. Plasma Aβ 1-40 levels were determined by capture ELISA (BioSource International, Camarillo, Calif.). The peptide analogue of CPI-3, with an amide group instead of the hydroxyethylene isostere was synthesized by SynPep (Camarillo, Calif.).
Since the conjugate inhibitors can cross the blood brain barrier in vivo, enter cells both in vitro and in vivo, and inhibit Aβ production in vitro, inhibition of Aβ production in vivo was determined. Tg2576 mice, expressing the Swedish mutation of the human amyloid precursor protein (including SEQ ID NO: 11) (Hsiao, K., et al., Science 274:99-102 (1996), the teachings of which are incorporated hereby in their entirety) were injected with CPI-3, which is identical in amino acid sequence to CPI-2 and lacks the amino-terminal fluorescein (FAM) derivative. Blood was collected from tg2576 animals at time intervals following injection of 400 μg of CPI-3.
At ages up to 9 months, plasma Aβ in the tg2576 mice serves as a reliable marker for brain Aβ production as a result of memapsin 2 activity (Kawarabayashi, T., et al., J Neurosci. 21:372-381 (2001)). Nine tg2576 mice were injected intraperitoneally with various doses of inhibitor CPI-3.

plasma Aβ40 [3] = test: Inhibition of Aβ production in transgenic mouse model of Alzheimer's disease (plasma Aβ40 ELISA); assay type: in vivo, APP/F mice
Experimental: Compounds MMI-138, MMI-165, and MMI-185 were synthesized as described above. Compounds were dissolved in 1 ml of dimethyl sulfoxide (DMSO) to a final concentration of about 1 mg/ml for MMI-165 and MMI-185, and about 10 mg/ml for MMI-138. […] Inhibitors were diluted into PBS or H2O immediately prior to injection, as described below. Inhibition constants were determined by methods described by Ermolieff, et al. (Biochem. 39:12450-12456 (2000), the teachings of which are incorporated hereby in their entirety).
The tg2576 strain of mice was obtained from Taconic (Germantown, N.Y.). The APP/F strain of mice were obtained by mating the tg2576 mice with the FVB/N strain. To determine presence of the Swedish APP gene in APP/F mice, the DNA from mice was isolated according to the Qiagen Dneasy™ Tissue Kit. PCR (Qiagen kit and protocol) was used to amplify the fragment of DNA corresponding to the human Swedish APP gene. The following primers were used: […]
At the age of three months, animals of the Alzheimer's disease mouse model APP/F were injected intraperitoneally (i.p.) with about 163 nanomoles of either compounds MMI-138 (molecular weight 674 g/mole; 110 μg per animal, n=2), MMI-165 (molecular weight 626 g/mole; 102 μg per animal, n=2), or MMI-185 (molecular weight 686; 112 μg per animal, n=2).
Heparinized capillary tubes collected blood samples from anesthetized animals from either the retro-orbital sinus or from the saphenous vein at specified intervals following injection. The blood samples were transferred to sterile 1.5 mL microcentrifuge tubes, centrifuged at 5,100 RPM for 10 minutes to recover the plasma (supernatant), and stored at −70° C. until analysis for the Aβ40 by Enzyme Linked-Immuno-Sorbent Assay (ELISA).
A sandwich ELISA (BioSource International, Camarillo, Calif.) was used to determine the levels of Aβ40 in plasma samples. The ELISA utilizes a primary antibody specific for human Aβ for the immobilization of the amino-terminus and a detection antibody specific for the carboxy-terminal amino acids of Aβ40. A conjugated secondary antibody was used to detect the ternary complex, using a stabilized chromogen substrate, quantifiable following addition of 1 M HCl, with the optical densities measured at 450 nm. The procedures were followed according to the BioSource protocol. Optical densities were converted to pg/ml quantities of Aβ40 using a linear regression of the optical densities of standards obtained from the commercial kit, to their known concentrations.

[4] = Martin et al. 1999; cited from earlier work
[5] = four injections at 2 hour intervals

SMILES: CC(C)C[C@H](NC(=O)[C@H](CC(N)=O)NC(=O)[C@@H](NC(=O)[C@H](CCC(=O)O)NC(=O)CCCCCNC(=O)c1ccc2c(c1)C(=O)OC21c2ccc(O)cc2Oc2cc(O)ccc21)C(C)C)[C@@H](O)C[C@@H](C)C(=O)N[C@@H](C)C(=O)N[C@@H](CCC(=O)O)C(=O)N[C@@H](Cc1ccccc1)C(=O)NCC(=O)N[C@@H](Cc1ccc(O)cc1)C(=O)NCC(=O)N[C@@H](CCCNC(=N)N)C(=O)N[C@@H](CCCCN)C(=O)N[C@@H](CCCCN)C(=O)N[C@@H](CCCNC(=N)N)C(=O)N[C@@H](CCCNC(=N)N)C(=O)N[C@@H](CCC(N)=O)C(=O)N[C@@H](CCCNC(=N)N)C(=O)N[C@@H](CCCNC(=N)N)C(=O)N[C@@H](CCCNC(=N)N)C(=O)O [CPI-1] ({5FAM-Ahx}-EVN[LeuΨ(S-CHOHCH2)Ala]AEFGYGRKKRRQRRR-OH)
Ki (memapsin 2): 39 nM
Penetration of cultured cells (intracellular fluorescence) (HEK293 cells): readily penetrated cultured cells within minutes
Uptake into brain tissue ([1]; 8 hours after i.p. injection, flow cytometry or confocal microscopy): penetration of the fluorescent conjugate into all brain cells
Splenocytes with fluorescence peak shift ([1]; splenectomy 2 hours after i.p. injection): ~100%
Blood cells with strong fluorescence signal ([1]; whole blood 20 minutes after i.p. injection, 0.3 nmol): approximately 100%

Ki (memapsin 2): 58 nM
SMILES: CC(C)C[C@H](NC(=O)[C@H](CCC(=O)O)NC(=O)CCCCCNC(=O)c1ccc2c(c1)C(=O)OC21c2ccc(O)cc2Oc2cc(O)ccc21)C(=O)N[C@@H](CC(=O)O)C(=O)N[C@@H](CC(C)C)[C@@H](O)C[C@@H](C)C(=O)N[C@H](C(=O)N[C@@H](CCC(=O)O)C(=O)N[C@@H](Cc1ccccc1)C(=O)NCC(=O)NCC(=O)N[C@H](CCCNC(=N)N)C(=O)N[C@H](CCCNC(=N)N)C(=O)N[C@H](CCCNC(=N)N)C(=O)N[C@H](CCCNC(=N)N)C(=O)N[C@H](CCCNC(=N)N)C(=O)N[C@H](CCCNC(=N)N)C(=O)N[C@H](CCCNC(=N)N)C(=O)N[C@H](CCCNC(=N)N)C(=O)N[C@H](CCCNC(=N)N)C(=O)O)C(C)C [CPI-2] ({5FAM-Ahx}-ELD[LeuΨ(S-CHOHCH2)Ala]VEFGG[dR][dR][dR][dR][dR][dR][dR][dR][dR]-OH)
Penetration of cultured cells (intracellular fluorescence) (HEK293 cells): readily penetrated cultured cells within minutes
Splenocytes with fluorescence peak shift ([1]; mouse, in vivo, ip): ~100%

SMILES: CC(C)C[C@H](NC(=O)[C@@H](N)CCC(=O)O)C(=O)N[C@@H](CC(=O)O)C(=O)N[C@@H](CC(C)C)[C@@H](O)C[C@@H](C)C(=O)N[C@H](C(=O)N[C@@H](CCC(=O)O)C(=O)N[C@@H](Cc1ccccc1)C(=O)NCC(=O)NCC(=O)N[C@H](CCCNC(=N)N)C(=O)N[C@H](CCCNC(=N)N)C(=O)N[C@H](CCCNC(=N)N)C(=O)N[C@H](CCCNC(=N)N)C(=O)N[C@H](CCCNC(=N)N)C(=O)N[C@H](CCCNC(=N)N)C(=O)N[C@H](CCCNC(=N)N)C(=O)N[C@H](CCCNC(=N)N)C(=O)N[C@H](CCCNC(=N)N)C(=O)O)C(C)C [CPI-3] (H-ELD[LeuΨ(S-CHOHCH2)Ala]VEFGG[dR][dR][dR][dR][dR][dR][dR][dR][dR]-OH)
Plasma Aβ40 level relative to initial value (plasma Aβ40 [2]; 2 hours following i.p. injection): about one third
Aβ level, average low, % of the average initial value (plasma Aβ40 [2]; [5]): 29%
Inhibition of plasma Aβ (plasma Aβ40 [2]; [5]): about 80%
Effect on plasma Aβ40 (plasma Aβ40 [2]): significant dose-dependent reduction
Half-life of inhibition of plasma Aβ40 (plasma Aβ40 [2]; single i.p. injection): 3 h
Time of return of plasma Aβ40 level to the initial value (plasma Aβ40 [2]; single i.p. injection): ≤ 8 h

SMILES: CC(C)C[C@H](NC(=O)[C@@H](N)CCC(=O)O)C(=O)N[C@@H](CC(=O)O)C(=O)N[C@@H](CC(C)C)[C@@H](O)C[C@@H](C)C(=O)N[C@H](C(=O)N[C@@H](CCC(=O)O)C(=O)N[C@@H](Cc1ccccc1)C(=O)O)C(C)C [OM00-3, ELDL*AVEF] (H-ELD[LeuΨ(S-CHOHCH2)Ala]VEF-OH)
Effect on plasma Aβ40 (plasma Aβ40 [2]): did not reduce plasma Aβ40 levels
Decrease in plasma Aβ40 (plasma Aβ40 [3]; 2 hours following injection of 163 nmoles): 16%
Inhibition of Aβ40 production in vivo (plasma Aβ40 [3]; plasma Aβ40): failed to inhibit Aβ40 production

SMILES: CC(C)(C)NC(=O)[C@@H]1CN(Cc2cccnc2)CCN1C[C@@H](O)C[C@@H](Cc1ccccc1)C(=O)N[C@H]1c2ccccc2C[C@H]1O [indinavir]
Crossing of the blood-brain barrier [4]: can cross the blood-brain barrier
